Results: patent publication US6358885B1, “Substituted phenylheterocyclic herbicides” (Mississippi State University, priority 1992, dated 2002)

Assays:
Test in all cases: Test G preemergence/postemergence greenhouse plant response rating 0 to 100
yellow nutsedge = type: in vivo, Cyperus esculentus; settings: Rate 125 g/ha, 0 to 100 scale
Source text: (§1) Seeds, rhizomes, or plant parts of alfalfa (Medicago ativa), annual bluegrass (Poa annua), bermudagrass (Cynodon dactylon), broadleaf signalgrass (Brachiaria plantaginea), common purslane (Portulaca oleracea), common ragweed (Ambrosia elatior), […] (Paspalum dilatatum), goosegrass (Eleusine indica), guineagrass (Panicum maximum), […] exaltata), johnsongrass (Sorghum halepense), large crabgrass (Digitaria sanguinalis), peanut (Arachis hypoagaea), pitted morningglory (Ipomoea lacunosa), purple nutsedge (Cyperus rotundus), sandbur (Cenchrus echinatus), smooth crabgrass (Digitaria ischaemum) and yellow nutsedge (Cyperus esculentus) were planted into greenhouse pots containing greenhouse planting medium. Each pot contained only one plant species. The test compound was dissolved in a non-phytotoxic solvent and applied preemergence and/or postemergence to the plants. Preemergence applications were made within one day of planting the seeds or plant parts. Postemergence applications were applied when the plants were in the two to four leaf stage (three to twenty cm). Test chemicals were dissolved in a non-phytotoxic solvent and applied preemergence and postemergence to the plants. Untreated control plants and treated plants were placed in the greenhouse and visually evaluated for injury at 13 to 21 days after herbicide application. […] A dash (-) response indicates no test result.

common purslane = type: in vivo, Portulaca oleracea; settings: 0 to 100 scale
Source text: as §1

alfalfa = type: in vivo, Medicago ativa; settings: 0 to 100 scale
Source text: as §1

peanut = type: in vivo, Arachis hypoagaea; settings: 0 to 100 scale
Source text: as §1

pitted morningglory = type: in vivo, Ipomoea lacunosa; settings: 0 to 100 scale
Source text: as §1

guineagrass = type: in vivo, Panicum maximum; settings: 0 to 100 scale
Source text: as §1

dallisgrass = type: in vivo, Paspalum dilatatum; settings: 0 to 100 scale
Source text: as §1

purple nutsedge = type: in vivo, Cyperus rotundus; settings: Rate 125 g/ha, 0 to 100 scale
Source text: as §1

common ragweed = type: in vivo, Ambrosia elatior; settings: 0 to 100 scale
Source text: as §1

johnsongrass = type: in vivo, Sorghum halepense; settings: 0 to 100 scale
Source text: as §1

smooth crabgrass = type: in vivo, Digitaria ischaemum; settings: 0 to 100 scale
Source text: as §1

broadleaf signalgrass = type: in vivo, Brachiaria plantaginea; settings: 0 to 100 scale
Source text: as §1

itchgrass = type: in vivo, Rottboellia exaltata; settings: 0 to 100 scale
Source text: as §1

annual bluegrass = type: in vivo, Poa annua; settings: 0 to 100 scale
Source text: as §1

sandbur = type: in vivo, Cenchrus echinatus; settings: 0 to 100 scale
Source text: as §1

goosegrass = type: in vivo, Eleusine indica; settings: 0 to 100 scale
Source text: as §1

## C=CCN1C(=O)COc2cc(F)c(-c3nn4c(c3Cl)CCCC4)cc21 [Compound 33]
Yellow nutsedge; POSTEMERGENCE
  Plant response rating, Yellow Nutsedge: 0
Yellow nutsedge; PREEMERGENCE
  Plant response rating, Yellow Nutsedge: 0
Common purslane; POSTEMERGENCE, Rate 125 g/ha
  Plant response rating, Cmn Purslane: 100
Common purslane; POSTEMERGENCE, Rate 250 g/ha
  Plant response rating, Cmn Purslane: 80
Common purslane; PREEMERGENCE, Rate 125 g/ha
  Plant response rating, Cmn Purslane: 0
Common purslane; PREEMERGENCE, Rate 250 g/ha
  Plant response rating, Cmn Purslane: 40
alfalfa; POSTEMERGENCE, Rate 125 g/ha
  Plant response rating, Alfalfa Var.: 0
alfalfa; POSTEMERGENCE, Rate 250 g/ha
  Plant response rating, Alfalfa Var.: 0
alfalfa; PREEMERGENCE, Rate 125 g/ha
  Plant response rating, Alfalfa Var.: 0
alfalfa; PREEMERGENCE, Rate 250 g/ha
  Plant response rating, Alfalfa Var.: 0
peanut; POSTEMERGENCE, Rate 125 g/ha
  Plant response rating, Peanuts: 0
peanut; POSTEMERGENCE, Rate 250 g/ha
  Plant response rating, Peanuts: 0
peanut; PREEMERGENCE, Rate 125 g/ha
  Plant response rating, Peanuts: 0
peanut; PREEMERGENCE, Rate 250 g/ha
  Plant response rating, Peanuts: 0
Pitted morningglory; POSTEMERGENCE, Rate 125 g/ha
  Plant response rating, Pit Morninglory: 30
Pitted morningglory; POSTEMERGENCE, Rate 250 g/ha
  Plant response rating, Pit Morninglory: 100
Pitted morningglory; PREEMERGENCE, Rate 125 g/ha
  Plant response rating, Pit Morninglory: 0
Pitted morningglory; PREEMERGENCE, Rate 250 g/ha
  Plant response rating, Pit Morninglory: 0
guineagrass; POSTEMERGENCE, Rate 125 g/ha
  Plant response rating, Guineagrass: 0
guineagrass; POSTEMERGENCE, Rate 250 g/ha
  Plant response rating, Guineagrass: 0
guineagrass; PREEMERGENCE, Rate 125 g/ha
  Plant response rating, Guineagrass: 0
guineagrass; PREEMERGENCE, Rate 250 g/ha
  Plant response rating, Guineagrass: 0
dallisgrass; POSTEMERGENCE, Rate 125 g/ha
  Plant response rating, Dallisgrass: 0
dallisgrass; POSTEMERGENCE, Rate 250 g/ha
  Plant response rating, Dallisgrass: 0
dallisgrass; PREEMERGENCE, Rate 125 g/ha
  Plant response rating, Dallisgrass: 0
dallisgrass; PREEMERGENCE, Rate 250 g/ha
  Plant response rating, Dallisgrass: 0
Purple nutsedge; POSTEMERGENCE
  Plant response rating, Purple Nutsedge: 10
Purple nutsedge; PREEMERGENCE
  Plant response rating, Purple Nutsedge: 0
Common ragweed; POSTEMERGENCE, Rate 125 g/ha
  Plant response rating, Cmn Ragweed: 80
Common ragweed; POSTEMERGENCE, Rate 250 g/ha
  Plant response rating, Cmn Ragweed: 50
Common ragweed; PREEMERGENCE, Rate 125 g/ha
  Plant response rating, Cmn Ragweed: 0
Common ragweed; PREEMERGENCE, Rate 250 g/ha
  Plant response rating, Cmn Ragweed: 0
johnsongrass; POSTEMERGENCE, Rate 125 g/ha
  Plant response rating, Johnsongrass: 0
johnsongrass; POSTEMERGENCE, Rate 250 g/ha
  Plant response rating, Johnsongrass: 0
johnsongrass; PREEMERGENCE, Rate 125 g/ha
  Plant response rating, Johnsongrass: 0
johnsongrass; PREEMERGENCE, Rate 250 g/ha
  Plant response rating, Johnsongrass: 0
Smooth crabgrass; POSTEMERGENCE, Rate 125 g/ha
  Plant response rating, Smooth Crabgras: 0
Smooth crabgrass; POSTEMERGENCE, Rate 250 g/ha
  Plant response rating, Smooth Crabgras: 0
Smooth crabgrass; PREEMERGENCE, Rate 125 g/ha
  Plant response rating, Smooth Crabgras: 0
Smooth crabgrass; PREEMERGENCE, Rate 250 g/ha
  Plant response rating, Smooth Crabgras: 0
Broadleaf signalgrass; POSTEMERGENCE, Rate 125 g/ha
  Plant response rating, Brdlf Sgnlgrass: 0
Broadleaf signalgrass; POSTEMERGENCE, Rate 250 g/ha
  Plant response rating, Brdlf Sgnlgrass: 0
Broadleaf signalgrass; PREEMERGENCE, Rate 125 g/ha
  Plant response rating, Brdlf Sgnlgrass: 0
Broadleaf signalgrass; PREEMERGENCE, Rate 250 g/ha
  Plant response rating, Brdlf Sgnlgrass: 0
itchgrass; POSTEMERGENCE, Rate 125 g/ha
  Plant response rating, Itchgrass: 0
itchgrass; POSTEMERGENCE, Rate 250 g/ha
  Plant response rating, Itchgrass: 0
itchgrass; PREEMERGENCE, Rate 125 g/ha
  Plant response rating, Itchgrass: 0
itchgrass; PREEMERGENCE, Rate 250 g/ha
  Plant response rating, Itchgrass: 0
Annual bluegrass; POSTEMERGENCE, Rate 125 g/ha
  Plant response rating, Ann Bluegrass: 0
Annual bluegrass; POSTEMERGENCE, Rate 250 g/ha
  Plant response rating, Ann Bluegrass: 0
Annual bluegrass; PREEMERGENCE, Rate 125 g/ha
  Plant response rating, Ann Bluegrass: 0
Annual bluegrass; PREEMERGENCE, Rate 250 g/ha
  Plant response rating, Ann Bluegrass: 0
sandbur; POSTEMERGENCE, Rate 125 g/ha
  Plant response rating, S. Sandbur: 0
sandbur; POSTEMERGENCE, Rate 250 g/ha
  Plant response rating, S. Sandbur: 0
sandbur; PREEMERGENCE, Rate 125 g/ha
  Plant response rating, S. Sandbur: 0
sandbur; PREEMERGENCE, Rate 250 g/ha
  Plant response rating, S. Sandbur: 0
goosegrass; POSTEMERGENCE, Rate 125 g/ha
  Plant response rating, Goosegrass: 0
goosegrass; POSTEMERGENCE, Rate 250 g/ha
  Plant response rating, Goosegrass: 0
goosegrass; PREEMERGENCE, Rate 125 g/ha
  Plant response rating, Goosegrass: 0
goosegrass; PREEMERGENCE, Rate 250 g/ha
  Plant response rating, Goosegrass: 0
